Where only a bound is given, the exact number is not on record here.

Assay [1] concerns the target T1, Serine protease 1 (Homo sapiens, UniProt P07477). The assay is described as follows: Compound was tested for inhibition of trypsin.
Assay [2] concerns the target T1, Serine protease 1. The assay is described as follows: Compound was tested for inhibition of trypsin.
Another assay concerns the target Prothrombin (Homo sapiens, UniProt P00734). The assay is described as follows: Compound was tested for inhibition of thrombin. The arrangement: species or system Oryctolagus cuniculus.
For a further assay, the target named is Coagulation factor X (Homo sapiens, UniProt P00742). The assay is described as follows: Compound was tested for inhibition of blood coagulation factor X.
Sequence of Coagulation factor X (P00742 41-179 limits assumed): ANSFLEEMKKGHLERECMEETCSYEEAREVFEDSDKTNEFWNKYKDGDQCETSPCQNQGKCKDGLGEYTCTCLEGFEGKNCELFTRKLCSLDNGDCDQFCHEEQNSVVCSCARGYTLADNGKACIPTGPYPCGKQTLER
Sequence of Coagulation factor X (P00742 235-488 limits assumed): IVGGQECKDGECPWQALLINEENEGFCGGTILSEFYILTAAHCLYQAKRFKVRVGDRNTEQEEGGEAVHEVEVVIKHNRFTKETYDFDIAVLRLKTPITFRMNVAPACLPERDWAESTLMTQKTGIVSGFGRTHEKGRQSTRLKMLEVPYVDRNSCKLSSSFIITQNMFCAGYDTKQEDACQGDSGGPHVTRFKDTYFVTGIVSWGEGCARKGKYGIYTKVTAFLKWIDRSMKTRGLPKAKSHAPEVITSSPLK

T1 sequence (P07477 whole entry): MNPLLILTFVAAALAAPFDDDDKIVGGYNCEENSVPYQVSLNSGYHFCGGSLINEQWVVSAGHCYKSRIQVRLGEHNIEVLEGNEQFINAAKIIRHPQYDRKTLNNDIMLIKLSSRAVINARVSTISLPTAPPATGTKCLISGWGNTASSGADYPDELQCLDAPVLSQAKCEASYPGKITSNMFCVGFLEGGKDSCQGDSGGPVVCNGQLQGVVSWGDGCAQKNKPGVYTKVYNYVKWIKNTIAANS

A word on the Ki: it is the dissociation constant of the complex between target and ligand, obtained from inhibition or displacement. Turning to `CC(=N)N1CC[C@H](Oc2ccc(C(Cc3ccc4ccc(C(=N)N)cc4c3)C(=O)O)cc2)C1` (some centres undefined), the inhibition constant (Ki) at Serine protease 1 [1] was 1100 nM.

`N=C(N)c1cccc(NC(=O)NC2CCN(Cc3ccccc3)CC2)c1`: the figures for the inhibition constant Ki at Serine protease 1 [2], on Prothrombin and on Coagulation factor X were > 1200 nM, > 21 µM and 4900 nM, respectively.

In the case of `N=C(N)c1cccc(N2CCCCN(C3CCN(C(=N)N)CC3)C2=O)c1`, the Ki on Prothrombin was > 21 µM; on Coagulation factor X, 2500 nM.

Turning to `N=C(N)c1cccc(N2CCCN(C3CCN(Cc4ccccc4)CC3)C2=O)c1`, the Ki on Prothrombin was 7.3 µM; at Coagulation factor X, 400 nM.

As for `N=C(N)c1cccc(N2CCN(C3CCN(Cc4ccccc4)CC3)C2=O)c1`, the inhibition constant (Ki) at Prothrombin is 11 µM; on Coagulation factor X, 2100 nM.

On to `N=C(N)c1cccc(N2CCCCN(C3CCN(Cc4ccccc4)CC3)C2=O)c1`, for which the figures for the Ki on Serine protease 1 [2], at Prothrombin and on Coagulation factor X were 282 nM, 2 µM and 102 nM, respectively.

`N=C(N)c1ccc(N2CCCCN(c3cccc(C(=N)N)c3)C2=O)cc1`: the Ki at Serine protease 1 [2] worked out at 120 nM; at Prothrombin, 9.3 µM; at Coagulation factor X it was 800 nM.

For `N=C(N)c1ccc(N2CCCCN(C3CCN(Cc4ccccc4)CC3)C2=O)cc1`, the Ki on Serine protease 1 [2] was > 1600 nM; on Prothrombin it was > 21 µM; at Coagulation factor X, 7500 nM.
